O=C(O)Cn1cnnn1
Conditions	solubility (mole fraction)
in acetone, 288.23 K	0.0964
in acetone, 293.32 K	0.105
in acetone, 298.24 K	0.115
in acetone, 303.31 K	0.125
in acetone, 308.18 K	0.136
in acetone, 313.26 K	0.149
in acetone, 318.27 K	0.162
in acetone, 323.23 K	0.175
in ethanol, 283.27 K	0.0517
in ethanol, 288.17 K	0.0621
in ethanol, 293.46 K	0.075
in ethanol, 298.22 K	0.0891
in ethanol, 303.31 K	0.108
in ethanol, 308.17 K	0.129
in ethanol, 313.23 K	0.157
in ethanol, 318.21 K	0.189
in ethanol, 323.26 K	0.229
in ethyl acetate, 288.27 K	0.0121
in ethyl acetate, 293.28 K	0.0138
in ethyl acetate, 298.19 K	0.0154
in ethyl acetate, 303.31 K	0.0173
in ethyl acetate, 308.22 K	0.0193
in ethyl acetate, 313.26 K	0.0218
in ethyl acetate, 318.16 K	0.0246
in ethyl acetate, 323.21 K	0.0281
in isopropanol, 288.17 K	0.0282
in isopropanol, 293.22 K	0.0374
in isopropanol, 298.26 K	0.0491
in isopropanol, 303.2 K	0.063
in isopropanol, 308.21 K	0.0794
in isopropanol, 313.29 K	0.0985
in isopropanol, 318.24 K	0.119
in isopropanol, 323.27 K	0.143
in methanol, 288.18 K	0.145
in methanol, 293.29 K	0.155
in methanol, 298.23 K	0.173
in methanol, 303.22 K	0.199
in methanol, 308.24 K	0.233
in methanol, 313.34 K	0.276
in methanol, 318.22 K	0.326
in methanol, 323.19 K	0.383
in n-butyl acetate, 288.22 K	0.00443
in n-butyl acetate, 293.3 K	0.00483
in n-butyl acetate, 298.33 K	0.00552
in n-butyl acetate, 303.18 K	0.00647
in n-butyl acetate, 308.22 K	0.00773
in n-butyl acetate, 313.3 K	0.00931
in n-butyl acetate, 318.24 K	0.0111
in n-butyl acetate, 323.28 K	0.0133
in n-propanol, 288.27 K	0.0312
in n-propanol, 293.21 K	0.0386
in n-propanol, 298.23 K	0.0464
in n-propanol, 303.29 K	0.0557
in n-propanol, 308.33 K	0.068
in n-propanol, 313.18 K	0.0839
in n-propanol, 318.22 K	0.106
in n-propanol, 323.32 K	0.135
in water, 283.17 K	0.00729
in water, 288.31 K	0.0109
in water, 293.28 K	0.016
in water, 298.24 K	0.0234
in water, 303.19 K	0.0348
in water, 308.3 K	0.0549
in water, 313.17 K	0.0826
in water, 318.22 K	0.122
in water, 323.16 K	0.173

Source: BigSolDB 2.1
